Where two headings read alike, the source gives them in different places.
Legend:
Aβ42 secretion [1] = experiment: Aβ40/Aβ42 ELISA of culture supernatants, CHO cells expressing APP751 and PS-1 mutant M146L; assay type: cell-based, Chinese hamster
Description: (§1) Cell cultures were maintained in standard cell culture media supplemented with 10% fetal bovine serum and 100 U/mL penicillin/streptomycin (Life Technologies Inc., Germany).
(§2) For analyses of Aβ secretion, APP processing, and notch cleavage, cells were cultured in serum-containing media and pretreated overnight with a specific NSAID. The next day, media were changed and cultures were treated with the same NSAID for another 24 hours.
(§3) Aβ was detected by sandwich enzyme-linked immunosorbent assay (ELISA) as described by Murphy et al. (2000) J Biol Chem 275:26277-84. Following NSAID treatment, culture supernatants were collected, and cell debris was removed by centrifugation. Complete protease inhibitor cocktail (Roche Molecular Biochemicals, IN, USA) was added to the media and Aβ40 and Aβ42 levels were quantified using end-specific Aβ ELISAs. All measurements were performed in duplicate.
(§4) Levels of Aβ40 and Aβ42 in culture supernatants were analyzed using ELISA. […] Aβ42/Aβ40 ratios and total Aβ levels (i.e., the sum of Aβ40 and Aβ42 values) were normalized to values obtained from DMSO-treated cells. Results shown were averages of two or three experiments performed in duplicate.
Aβ40 and Aβ42 levels in culture supernatants were analyzed using ELISA as described in Example 3. […] Aβ42/Aβ40 ratios and total Aβ levels were normalized to values obtained from ethanol-treated cells. Results shown were averages of two or three experiments, each performed in duplicate.

APP processing = experiment: Western blot of APP, APP CTFs and sAPP, CHO cells expressing APP751; assay type: cell-based, Chinese hamster
Text: Expression of holo-APP and APP C-terminal fragments (CTFs) was examined by Western blot analysis using antibody CT-15. APP secretion was examined by Western blotting using a mixture of 5A3/IG7 antibodies. APP turnover was examined by pulse labeling of CHO cells with 150 μCi [^35S]-methionine for fifteen minutes followed by a cold chase step for up to four hours. Cell lysates were immunoprecipitated with antibody CT-15, subjected to SDS-PAGE, and analyzed by phosphor imaging.
Cell lysates were prepared, and steady-state APP levels were examined using 4-12% gradient-gel electrophoresis and western blotting using the polyclonal antibody CT15.

[2] = test system: Notch intramembrane cleavage; experiment: Notch intramembrane cleavage and NICD formation in HEK293 cells; assay type: cell-based
Text: Two Notch-encoding vector constructs were used in examining Notch processing. These were a construct expressing a myc-tagged NH2-terminal truncated Notch-1 polypeptide (NotchΔEMV), and a construct expressing only the Notch intracellular cytoplasmic domain (NICD) (see Kopan et al. (1996) Proc Natl Acad Sci USA 93:1683-8). In the construct expressing a myc-tagged NH2-terminal truncated Notch-1 polypeptide, the start codon, a methionine at position 1726, was mutated to a valine to eliminate translation initiation.
Notch intramembrane cleavage and formation of NICD were analyzed in kidney HEK293 cells. The myc-tagged NotchΔEMV construct encoding a constitutively cleaved Notch variant was transiently transfected into HEK293 cells. […] Then they were pulse labeled with ^35S-methionine for thirty minutes and chased for two hours. Cell lysates were prepared and subjected to immunoprecipitation with monoclonal antibody 9E10. Immunoprecipitated proteins were subjected to SDS-PAGE and phosphor imaging analyses.

[3] = test system: brain Aβ42 levels in Tg2576 mice; experiment: Acute oral dosing of three-month-old Tg2576 mice, brain Aβ ELISA; assay type: in vivo, mouse; conditions: Tg2576 mice
Description: NSAIDs were dissolved in an appropriate vehicle. Dimethyl sulfoxide (DMSO), ethanol, and ethyl acetate are some examples. The NSAID solution was mixed with Kool-Aid and administered orally using a medicine dropper. […] At two hours after the final doses were administered, animals were sacrificed, and SDS soluble Aβ40 and Aβ42 were analyzed using ELISA.
Three month old mice have high levels of soluble Aβ in the brain but no Aβ deposition (see Hsiao et al. (1996) Science 274:99-102). […] Brain levels of SDS-soluble Aβ40 and Aβ42 were measured using ELISA.
Compounds were administered orally.

Aβ42 secretion [4] = experiment: Primary in vitro screen, CHO-APP695NL,I,his cells, end-specific Aβ40 and Aβ42 ELISAs; assay type: cell-based, Chinese hamster; conditions: Cricetulus griseus, 6 h
Description: Aβ40 and Aβ42 levels in culture supernatants were determined for each time points using ELISA.
In a primary screen, the effects of NSAIDs on Aβ42 secretion by a CHO cell line that expressed APP(CHO-APP695NL,I,his) were examined. Duplicate cell cultures were treated with (a) a vehicle, (b) 10 μM of NSAID, or (c) 100 μM of NSAID.
To determine Aβ40 and Aβ42 levels, six-hour culture supernatants taken from cells grown in a single well of a twenty-four-well plate were used in end-specific Aβ40 and Aβ42 ELISAs (Suzuki, et al. (1994) Sci 264:[…]). Aβ40 and Aβ42 levels of cultures treated with NSAID were compared with those of cultures treated with the vehicle alone. […] NSAIDs that caused either selective reduction of Aβ42 levels or reduction in both Aβ40 and Aβ42 levels are subjected to a secondary screen.

Aβ levels in the brain = conditions: long-term transgenic mouse studies; cited from earlier work
[5] = plasma concentration of the drug; cited from earlier work
Aβ42 secretion [6] = experiment: Aβ secretion in kidney HEK293 cells; assay type: cell-based; conditions: data not shown
Description: as §1, §2, §3, §4

Aβ42 secretion [7] = experiment: Aβ ELISA, primary fibroblasts from COX-1/COX-2 double-knockout mice expressing APP695; assay type: cell-based; conditions: primary mouse embryonic fibroblasts; data not shown
Text: as §1, §3

CHO or HS683 cells = experiment: NSAID cell toxicity, MTT-assay or [3H]-thymidine incorporation assay; conditions: concentrations up to 100 μM; data not shown
Text: NSAID toxicity in CHO or HS683 cells was examined using standard MTT-assay (3-(4,5-Dimethyl-2-thiazolylyl)-2,5-diphenyl-2H-tetrazolium Bromide) or [^3H]-thymidine incorporation assay.

Aβ species [8] = experiment: Immunoprecipitation/mass spectrometry of secreted Aβ species, CHO cells expressing APP751; assay type: cell-based, Chinese hamster
Description: Secretion of Aβ peptides was analyzed using immunoprecipitation/mass spectrometry as described by Wang et al. (1996) J Biol Chem 271:31894-902. Briefly, 1 mL amount of culture supernatant was subjected to immunoprecipitation using the monoclonal antibody 4G8 (Senetek, CA, USA). Molecular masses and concentrations of Aβ peptides were measured using a matrix assisted laser desorption/ionization time-of-flight (MALDI-TOF) mass spectrometer. To compare the concentrations of individual Aβ species in culture supernatants, synthetic Aβ12-28 peptides (Sigma, MO, USA) were added to the supernatant samples as internal standards and relative peak heights were calculated.
To examine Aβ species secreted by cells treated with sulindac sulfide, immunoprecipitation and mass spectrometry analyses were performed. […] Various Aβ species including Aβ1-42, Aβ1-39, Aβ1-38, and Aβ1-37 were quantified. […] Duplicate measurements were used in generating the bar graph. […] Increases in Aβ1-38 levels were dose-dependent.

Aβ species [9] = experiment: Bicine/Urea Aβ western blot, CHO cells expressing APP751 and mutant PS-1; assay type: cell-based, Chinese hamster; conditions: 60 μM or 80 μM, compared with DMSO
Description: Bicine/Urea Aβ western blot analysis was performed as described by Wiltfang et al. (1997) Electrophoresis 18:527-32. A 1 mL amount of culture supernatant was subjected to immunoprecipitation using monoclonal antibody 26D6. Immunoprecipitates were mixed with sample buffer and heated to 95° C. for five minutes. Eluant samples were separated on Bicine/Urea gels, then transferred to nitrocellulose membranes, and probed with antibody 26D6. Standard Aβ1-40, Aβ1-42 and Aβ1-38 peptides (Sigma, MO, USA) were used for identification of the Aβ species.
AP polypeptides were immunoprecipitated from culture supernatants of CHO cells expressing APP751 and mutant PS-1. Immunoprecipitates were separated on an SDS-urea gel system that can resolve individual Aβ species (see Wiltfang et al. (1997) Electrophoresis 18:527-32). Standard Aβ1-38, Aβ1-40, and Aβ1-42 peptides were included for identification of different Aβ species.

[10] = three month-old, 50 mg/kg/day orally for three days, SDS-soluble, mean ± SD
[11] = treatment for three days, 50 mg/kg/day

For `CC(C)Cc1ccc(C(C)C(=O)O)cc1` (stereo not shown) [Ibuprofen, ibuprofen], the “total Aβ levels” value (Aβ42 secretion [1]; concentrations up to 500 μM) was “not significantly affected”, the “accumulation of APP-CTFs” value (APP processing; 500 μM, data not shown) was “did not cause” and the “inhibition of Notch cleavage” value ([2]; 500 μM, data not shown) was “did not cause”. For the same compound, the “Brain levels of Aβ40” value [3, 10] was 2620 ± 246 fmol/gm, the “Brain levels of Aβ42” value [3, 10] was 734 ± 302 fmol/gm and the “% Aβ42 in brain” value ([3]; three month-old, 50 mg/kg/day orally for three days, mean ± SD) was 21.5 ± 7.7 %. For the same compound, the “Aβ40 levels in the brain” value [3, 11] was “no change”, the “reduction in Aβ42 levels in the brain” value [3, 11] was “approximately 30%” and the activity at 10 µM (Aβ42 secretion [4]; 10 μM, six-hour culture supernatants, read-out: % Control % Aβ42) was 82%. For the same compound, the activity at 10 µM (Aβ42 secretion [4]; 10 μM, six-hour culture supernatants, read-out: % Control Aβ40) was 102%, the activity at 10 µM (Aβ42 secretion [4]; 10 μM, six-hour culture supernatants, read-out: % Control Aβ42) was 80% and the activity at 100 µM (Aβ42 secretion [4]; six-hour culture supernatants, read-out: % Control % Aβ42) was 81%. For the same compound, the activity at 100 µM (Aβ42 secretion [4]; six-hour culture supernatants, read-out: % Control Aβ40) was 95%, the activity at 100 µM (Aβ42 secretion [4]; six-hour culture supernatants, read-out: % Control Aβ42) was 74% and the “Aβ levels in the brain, lower when treated than untreated” value (Aβ levels in the brain) was “about 38%”. The Plasma [5] was 40 to 111 µM.
With `CSc1ccc(/C=C2/C(C)=C(CC(=O)O)c3cc(F)ccc32)cc1` [Sulindac sulfide, sulindac sulfide] the “total Aβ level (sum of Aβ40 and Aβ42)” value (Aβ42 secretion [1]; sulindac sulfide concentrations of FIG. 1) was “No significant reduction”, the Aβ42 secretion (Aβ42 secretion [6]) was “reduced Aβ42 secretion” and the Aβ42 secretion (Aβ42 secretion [7]) was “reduced Aβ42 secretion”. The cell toxicity (CHO or HS683 cells) was “No cell toxicity was observed”, the “CTF levels (western blot, CT15)” value (APP processing; compared with DMSO) was “nor an increase in CTF levels was observed” and the “steady-state APP levels (western blot, CT15)” value (APP processing; compared with DMSO) was “neither a change in APP levels”. The “secretion of the APP ectodomain (sAPP)” value (APP processing; increasing concentrations, 5A3/1G7 antibodies) was “no significant change”, the “Notch cleavage and NICD formation” value ([2]; 125 μM for 36 hours, HEK293 cells transfected with NotchΔEMV) was “did not impair Notch cleavage and NICD formation” and the “Aβ42 secretion (mass spectrometry)” value (Aβ species [8]; 75-100 μM) was “strong reduction”. The “levels of Aβ40 (mass spectrometry)” value (Aβ species [8]; 75-100 μM) was “largely unaffected”, the “increases in Aβ1-38 levels” value (Aβ species [8]; 75 or 100 μM) was “dose-dependent” and the “other Aβ peptide levels” value (Aβ species [8]; compared with DMSO) was “did not vary consistently”. For the same compound, the “immuno-reactive band corresponding to Aβ1-38” value (Aβ species [9]) was “equivalent increase in the intensity”, the “immuno-reactive band corresponding to Aβ42” value (Aβ species [9]) was “reduction in the intensity” and the activity at 10 µM (Aβ42 secretion [4]; read-out: % Control % Aβ42) was 65%. The activity at 10 µM (Aβ42 secretion [4]; read-out: % Control Aβ40) was 97%, the activity at 10 µM (Aβ42 secretion [4]; read-out: % Control Aβ42) was 57% and the Plasma [5] was 14.6 µM.

From patent US20060004086A1, “Method of reducing Abeta42 and treating diseases” (Mayo Foundation for Medical Education and Research, priority 2000, published 2006)
